The results in this text go back to US20200077655A1, “Use of an Acyclic Picolinamide Compound as a Fungicide for Control of Phytopathogenic Fungi in Orchard, Vineyard and Plantation Crops” (Dow AgroSciences LLC, priority 2017, published 2020).

Each structure is given as a SMILES string.

The test system of this test is Rhizopus stolonifer (RIZPST). Kind of test: Field microplot assessment on Rhizopus rot on apricots. The format is in vivo. The conditions noted are these: field grown apricots. The text has this:
A field trial assessing the utility of Compound I on rot diseases of stone fruits was done using apricots in a microplot method, part of an experimental trial designed as a randomized complete block with four replications. In a microplot method, two mature fruits on a single branch or cluster of fruits were selected for each replication (for a total of 10 replications) instead of using an entire replication. Colored flagging identified treatments. Fungicidal treatments containing Compound I, applied in a 5% EC formulation and tank mixed with an adjuvant (Trycol, 50% w/w at 0.2% v/v), were sprayed on apricots (PRNAR) at rates of 50, 100, and 150 grams of active ingredient per hectare (g ai/ha). The applications to the selected mature apricots were done at 7 days before harvest using a hand held manual spray bottle at a water volume of 500 L/ha. One day after application, a ZipLoc plastic bag was placed over the fruit or fruit cluster and an inoculation mix of MONIFC (Rhizopus was from natural population present in the orchard) was sprayed inside covering the fruits. The plastic bags were removed after 24 hours. At harvest, the fruits were collected in the field and placed in plastic Tupperware containers. 150 mL of de-ionized water was poured in the bottom of the Tupperware containers and the fruits were sprayed with a light mist of water. The containers were brought to the lab, enclosed in a large trash bag to keep the humidity high, and incubated on a lab bench at approximately 23° C. Visual disease incidence was assessed during the trial at 9 and 16 days after application. Area under the disease progress curve (AUDPC) was calculated for each plot using the sets of recorded incidence data. Relative AUDPC (% control based on AUDPC) was calculated as percent of the nontreated control.

`COc1ccnc(C(=O)N[C@@H](C)C(=O)O[C@@H](C)C(c2ccc(F)cc2)c2ccc(F)cc2)c1OC(C)=O` [Compound I, (S)-1,1-bis(4-fluorophenyl)propan-2-yl (3-acetoxy-4-methoxypicolinoyl)-L-alaninate]: the “Percent control (AUDPC) from fruit incidence, RIZPST” value is given as “B (51-75)” (50 g ai/ha), “C (26-50)” (100 g ai/ha) and “C (26-50)” (150 g ai/ha).
